# Assay results taken from article PMC6858373 (Scientific Reports, 2019).
# Where a name gives a salt, the structure may show the parent alone. Read-outs that look alike come from different tables or passages of the source.
# Legend:
# [1] = biological target: full-length P. pyralis luciferase (Photinus pyralis, UniProt P08659, K549A/L550V/N119G/N50D/S548I); format: cell-based
# [2] = biological target: T1, FGF14:Nav1.6 C-tail complex (Homo sapiens, UniProt Q92915+Q9UQD0); assay: Split-luciferase complementation assay (LCA) in Clone V double stable HEK293 cells; format: cell-based
# T1 construct: polymerase chain reaction (PCR) amplification of the FGF14 open reading frame (nt 1–855); C-terminal fragment of Nav1.6 (amino acids 1763–1976) fused with CD4ΔC-tail (amino acids 1–395); expressed in transfected cells
# [3] = CC_NCI screening, full-length luciferase counter-screen luminescence, normalized to on-plate 0.3% DMSO controls
# [4] = CC_NCI screening, full-length luciferase counter-screen, normalized to on-plate 0.3% DMSO controls
# [5] = CC_NCI screening, LCA luminescence, biological replicate Set 1, normalized to on-plate 0.3% DMSO controls (n=16 per plate)
# [6] = CC_NCI screening, LCA luminescence, biological replicate Set 2, normalized to on-plate 0.3% DMSO controls (n=16 per plate)
# [7] = CC_NCI screening, LCA, biological replicate Set 1, normalized to on-plate 0.3% DMSO controls
# [8] = CC_NCI screening, LCA, biological replicate Set 2, normalized to on-plate 0.3% DMSO controls
# [9] = CC_NCI screening, average of Set 1 and Set 2, normalized to 0.3% DMSO controls
# [10] = CC_NCI screening, normalized to on-plate 0.3% DMSO controls
# [11] = CC_NCI screening, biological replicate Set 1, normalized to on-plate 0.3% DMSO controls
# [12] = CC_NCI screening, biological replicate Set 1, normalized to on-plate 0.3% DMSO controls (n=16 per plate)
# [13] = CC_NCI screening, biological replicate Set 2, normalized to on-plate 0.3% DMSO controls
# [14] = CC_NCI screening, biological replicate Set 2, normalized to on-plate 0.3% DMSO controls (n=16 per plate)
# [15] = average of Set 1 and Set 2, normalized to 0.3% DMSO controls
# [16] = 30 µM, 384-well, average of primary screening (n = 2), vs on-plate 0.3% DMSO
# Chain of full-length P. pyralis luciferase (P08659 whole entry N50D/N119G/S548I/K549A/L550V, looked up): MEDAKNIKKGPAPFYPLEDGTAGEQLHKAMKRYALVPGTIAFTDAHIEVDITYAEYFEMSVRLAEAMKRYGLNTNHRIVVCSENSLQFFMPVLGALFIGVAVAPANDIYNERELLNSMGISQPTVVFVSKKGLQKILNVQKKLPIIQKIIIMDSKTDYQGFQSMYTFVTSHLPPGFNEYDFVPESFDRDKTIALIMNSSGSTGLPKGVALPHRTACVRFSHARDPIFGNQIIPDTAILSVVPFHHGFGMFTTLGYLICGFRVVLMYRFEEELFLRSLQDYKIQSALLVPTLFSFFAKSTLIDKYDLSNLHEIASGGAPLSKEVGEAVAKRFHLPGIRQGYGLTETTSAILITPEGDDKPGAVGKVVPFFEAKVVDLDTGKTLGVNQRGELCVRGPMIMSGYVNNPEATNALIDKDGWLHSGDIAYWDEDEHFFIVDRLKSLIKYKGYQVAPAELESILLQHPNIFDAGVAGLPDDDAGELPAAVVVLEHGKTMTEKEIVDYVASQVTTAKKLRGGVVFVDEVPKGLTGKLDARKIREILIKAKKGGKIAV
# T1 sequence (Q92915 1-252 isoform Q92915-2): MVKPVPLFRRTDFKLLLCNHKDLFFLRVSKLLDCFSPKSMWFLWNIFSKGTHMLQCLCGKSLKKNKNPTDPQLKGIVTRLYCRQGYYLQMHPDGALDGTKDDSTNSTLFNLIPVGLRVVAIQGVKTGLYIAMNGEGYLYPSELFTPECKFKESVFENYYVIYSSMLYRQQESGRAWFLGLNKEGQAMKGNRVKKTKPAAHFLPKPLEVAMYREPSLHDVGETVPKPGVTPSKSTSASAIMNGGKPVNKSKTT
# T1 sequence (Q9UQD0 1763-1976 limits assumed): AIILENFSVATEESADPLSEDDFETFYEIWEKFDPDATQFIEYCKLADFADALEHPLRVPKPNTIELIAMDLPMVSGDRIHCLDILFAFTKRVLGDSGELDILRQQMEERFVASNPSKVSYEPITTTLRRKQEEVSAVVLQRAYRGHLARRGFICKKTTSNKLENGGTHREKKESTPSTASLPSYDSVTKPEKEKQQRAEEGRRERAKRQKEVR
Molecule,"Luciferase Assay % Lum [1, 3]","Luciferase Assay Z-score [1, 4]","Split Luciferase Assay % Lum Set 1 [2, 5]","Split Luciferase Assay %Lum Set 2 [2, 6]","Split Luciferase Assay Z-score Set 1 [2, 7]","Split Luciferase Assay Z-score Set 2 [2, 8]","Split Luciferase Assay %Lum Avg [2, 9]","Toxicity Assay % Fluor (Clone V cells; human, 16 h, 30 µM)","Toxicity Assay Z-score (Clone V cells; human, 16 h, 30 µM)",also measured
COc1cccc2c1C(=O)c1c(O)c3c(c(O)c1C2=O)C[C@@](O)(C(=O)CO)C[C@@H]3O[C@H]1C[C@H](N)[C@@H](O)[C@H](C)O1 [Epirubicin hydrochloride],76.16%,-3.05,44.90%,45.77%,-4.45,-4.41,45.34%,86.21%,-1.93,–
DNA-PK INHIBITOR V,–,–,–,–,–,–,–,–,–,"Luciferase Assay % Lum (full-length luciferase counter-screen) [1, 10]: 82.55%; Luciferase Assay Z-score (full-length luciferase counter-screen) [1, 10]: -2.23; Split Luciferase Assay Z-score Set 1 [2, 11]: -0.59; Split Luciferase Assay % Lum Set 1 [2, 12]: 92.73%; Split Luciferase Assay Z-score Set 2 [2, 13]: -0.01; Split Luciferase Assay %Lum Set 2 [2, 14]: 99.87%; Split Luciferase Assay %Lum Avg [2, 15]: 96.30%; Toxicity Assay % Fluor (CTB cell viability fluorescence) (Clone V cells): 115.08%; Toxicity Assay Z-score (CTB cell viability) (Clone V cells): 2.11"
"CS(=O)(=O)c1ccc(C(=O)Nc2ccc(Cl)c(-c3ccccn3)c2)c(Cl)c1 [Vismodegib, reference compound]",90.92%,-1.16,175.35%,147.72%,6.09,3.88,161.54%,93.24%,-0.95,"Z-score (LCA primary screening) [2, 16]: 4.99; EMax (% Luminescence) ([2]; agonists, Clone V cells, 384-well, normalized to DMSO): 161.54 % Luminescence; EC50 ([2]; estimated, 8-point dose response 0.25-30 µM, n = 4 per concentration, library compounds, read-out: EC50): 1910 nM"
Bleomycin sulfate,94.27%,-0.73,125.34%,143.56%,2.05,3.54,134.45%,–,–,Toxicity Assay % Fluor (Clone V cells): 80.17%; Toxicity Assay Z-score (Clone V cells): -2.77
O=c1[nH]nc(Sc2ncc([N+](=O)[O-])s2)n1-c1ccc2c(c1)OCCO2 [JNK INHIBITOR X],–,–,–,–,–,–,–,–,–,"Luciferase Assay % Lum (full-length luciferase counter-screen) [1, 10]: 4.80%; Luciferase Assay Z-score (full-length luciferase counter-screen) [1, 10]: -12.19; Split Luciferase Assay Z-score Set 1 [2, 11]: -7.97; Split Luciferase Assay % Lum Set 1 [2, 12]: 1.41%; Split Luciferase Assay Z-score Set 2 [2, 13]: -7.88; Split Luciferase Assay %Lum Set 2 [2, 14]: 3.12%; Split Luciferase Assay %Lum Avg [2, 15]: 2.27%; Toxicity Assay % Fluor (CTB cell viability fluorescence) (Clone V cells): 82.79%; Toxicity Assay Z-score (CTB cell viability) (Clone V cells): -2.41"
C=CC(=O)Nc1cc2c(Nc3ccc(F)c(Cl)c3)ncnc2cc1OCCCN1CCOCC1 [CANERTINIB],50.65%,-6.32,28.59%,34.33%,-5.77,-5.34,31.46%,84.09%,-2.22,–
"CCCS(=O)(=O)Nc1ccc(F)c(C(=O)c2c[nH]c3ncc(Cl)cc23)c1F [PLX4720, reference compound]",–,–,–,–,–,–,–,93.90%,-0.85,"Luciferase Assay % Lum [1]: 79.36%; Luciferase Assay Z-score [1]: -2.64; IMin (% Luminescence) [2]: 36.71 % Luminescence; Split Luciferase Assay % Lum Set 1 [2]: 30.77%; Split Luciferase Assay %Lum Avg [2]: 36.71%; Split Luciferase Assay %Lum Set 2 [2]: 42.65%; Split Luciferase Assay Z-score Set 1 [2]: -5.60; Split Luciferase Assay Z-score Set 2 [2]: -4.67; Z-score (LCA primary screening) [2]: −5.13; IC50 ([2]; estimated, 8-point dose response 0.25-30 µM, n = 4 per concentration, library compounds, read-out: IC50): 2140 nM"
NC(=O)c1ccc(-c2nc(-c3ccc4c(c3)OCO4)c(-c3ccccn3)[nH]2)cc1 [SB 431542],93.14%,-0.88,112.30%,114.43%,0.99,1.17,113.37%,90.72%,-1.30,–
Cn1cc(/C=C2\C(=O)Nc3cccnc32)c2ccccc21 [GW 441756],–,–,–,–,–,–,–,–,–,"Luciferase Assay % Lum (full-length luciferase counter-screen) [1, 10]: 109.93%; Luciferase Assay Z-score (full-length luciferase counter-screen) [1, 10]: 1.27; Split Luciferase Assay Z-score Set 1 [2, 11]: -0.50; Split Luciferase Assay % Lum Set 1 [2, 12]: 93.82%; Split Luciferase Assay Z-score Set 2 [2, 13]: -2.30; Split Luciferase Assay %Lum Set 2 [2, 14]: 71.78%; Split Luciferase Assay %Lum Avg [2, 15]: 82.80%; Toxicity Assay % Fluor (CTB cell viability fluorescence) (Clone V cells): 107.67%; Toxicity Assay Z-score (CTB cell viability) (Clone V cells): 1.07"
COc1cc2ncnc(Nc3ccc(F)c(Cl)c3)c2cc1OCCCN1CCOCC1 [Gefitinib],–,–,97.08%,102.99%,-0.24,0.24,100.03%,87.95%,-1.68,Luciferase Assay % Lum [1]: 85.80%
O=[As]O[As]=O (stereo not drawn) [Arsenic trioxide],96.86%,-0.40,20.98%,29.13%,-6.39,-5.77,25.05%,–,–,Toxicity Assay % Fluor (Clone V cells): 84.44%; Toxicity Assay Z-score (Clone V cells): -2.18
Cc1cn(-c2cc(NC(=O)c3ccc(C)c(Nc4nccc(-c5cccnc5)n4)c3)cc(C(F)(F)F)c2)cn1 [NILOTINIB],102.54%,0.33,109.04%,122.76%,0.73,1.85,115.90%,–,–,Toxicity Assay % Fluor (Clone V cells): 88.70%; Toxicity Assay Z-score (Clone V cells): -1.58
Cc1[nH]c(/C=C2\C(=O)Nc3ccc(S(=O)(=O)N(C)c4cccc(Cl)c4)cc32)c(C)c1C(=O)N1CCN(C)CC1 [SU 11274],85.15%,-1.90,81.86%,81.14%,-1.47,-1.53,81.50%,97.70%,-0.32,–
CC1=C2C[C@H]3[C@@H](CC=C4C[C@@H](O)CC[C@@]43C)[C@@H]2CC[C@]12O[C@@H]1C[C@H](C)CN[C@H]1[C@H]2C [CYCLOPAMINE],–,–,–,–,–,–,–,–,–,Luciferase Assay Z-score [1]: 0.81; Split Luciferase Assay % Lum Set 1 [2]: 141.65%; Split Luciferase Assay %Lum Avg [2]: 122.84%; Split Luciferase Assay %Lum Set 2 [2]: 104.03%; Split Luciferase Assay Z-score Set 1 [2]: 3.37; Split Luciferase Assay Z-score Set 2 [2]: 0.33; Toxicity Assay % Fluor (Clone V cells; human): 85.59%; Toxicity Assay Z-score (Clone V cells; human): -2.01
Nc1nc(Cl)nc2c1ncn2[C@@H]1O[C@H](CO)[C@@H](O)[C@@H]1F [Clofarabine],–,–,146.00%,131.08%,3.72,2.53,138.54%,94.15%,-0.82,Luciferase Assay % Lum [1]: 100.89%; Luciferase Assay Z-score [1]: 0.11
CCc1cc(Nc2nccc(-c3c(-c4ccc(OC)c(C(=O)Nc5c(F)cccc5F)c4)nc4ccccn34)n2)c(OC)cc1N1CCC(N2CCN(S(C)(=O)=O)CC2)CC1 [GSK1904529A],86.97%,-1.67,116.65%,92.59%,1.35,-0.60,104.62%,–,–,Toxicity Assay % Fluor (Clone V cells): 100.76%; Toxicity Assay Z-score (Clone V cells): 0.11
"CN[C@@H]1C[C@H]2O[C@@](C)([C@@H]1OC)n1c3ccccc3c3c4c(c5c6ccccc6n2c5c31)C(=O)NC4 [Staurosporine, reference compound]",101.58%,0.20,23.16%,14.56%,-6.21,-6.95,18.86%,–,–,"Z-score (LCA primary screening) [2, 16]: −6.58; IMin (% Luminescence) ([2]; antagonists, Clone V cells, 384-well, normalized to DMSO): 18.86 % Luminescence; Toxicity Assay % Fluor (Clone V cells; human): 82.83%; Toxicity Assay Z-score (Clone V cells; human): -2.40"
